Test results as given in US20160045463A1, “USE OF METALLOPROTEASE INHIBITORS IN THE TREATMENT OF POLYCYSTIC LIVER DISEASES” (UNIVERSIDAD DE SALAMANCA, priority 2012, published 2016).

Tests used:
[1] = test system: normal human cholangiocytes; experiment: Metalloproteolytic activity of culture supernatants, ES001 fluorogenic peptide cleavage; format: cell-based; conditions: for metalloproteolytic activity in presence of stimulus: normal cholangiocytes vs basal, Table 3 final concentration: IL-6, IL-8 50 ng/ml, 17β-estradiol 1 nM/ml, VEGF, EGF, ENA-78, GRO-α 10 ng/ml, HGF 20 ng/ml, FIG. 9
Experimental: (§1) Metalloproteolytic or metalloprotease activity was measured in supernatants of cultures of normal human cholangiocytes and polycystic human cholangiocytes by an assay based on the cleavage of the ES001 fluorogenic synthetic peptide (R&D Systems Minneapolis, Minn., USA) that emits fluorescence proportional to metalloproteolytic activity. The substrate Mca-Pro-Leu-Gly-Leu-Dpa-Ala-Arg-NH2 [Mca: (7-Methoxycoumarin-4-yl)acetyl, Dpa: N-3-(2,4-Dinitrophenyl)-L-2,3-diaminopropionyl] (Knight C G, et al. FEBS Letters 1992; 296:263) is lysed between glycine and leucine by the action of the MMPs, especially MMP-1 (collagenase 1), MMP-2 (gelatinase A), MMP-7 (matrilysin), MMP-8 (collagenase 2), MMP-9 (gelatinase B), MMP-12 (macrophage elastase), MMP-13 (collagenase 3), MMP-14 (MT1-MMP), MMP-15 (MT2-MMP) and MMP-16 (MT3-MMP).
(§2) The basal metalloproteolytic activity of normal human cholangiocyte and polycystic human cholangiocytes cultures was determined by trypsinising the contents of 250 ml flasks and counting the number of cells in an inverted optical microscope using a Neubauer camera and a ½ dilution of the cell solution with trypan blue (Sigma). Next, 300,000 cells were seeded in each well of a 6-well plate and incubated with enriched DMEM/F-12 medium for 24 hours. After this time, the cells were washed with PBS and the culture medium changed for 2 ml of quiescent medium (DMEM/F-12, 1% FBS and 1% P/S) and incubated for 6 hours at 37° C./5% CO2. The supernatant was collected from each well and centrifuged at 4° C. for 10 minutes at 1,500 rpm to remove the dead cells present in the supernatant. The supernatant was concentrated 50 times using a 15 kDa (Millipore) Amicon Ultra concentrator. Next the concentrated supernatant was incubated for 2 hours at 37° C. with the ES001 fluorogenic peptide at a final concentration of 10 μM. Also, GM6001 (a global MMP inhibitor) and aprotinin (a global inhibitor of serine proteases) (both from Sigma-Aldrich) were used as controls of the specificity of the analysis of MMP activity in the assay. Recombinant MMP-10 (kindly provided by Dr. José Antonio Rodriguez Garcia, Laboratorio de Ateroesclerosis e Inflamación del CIMA, Universidad de Navarra) was used as a positive control and DMEM/F-12 medium without serum was used as the negative control. The fluorescence determination was kinetically measured in a Spectra MAX GeminiXS (Molecular Devices Sunnyvale, Calif., USA) spectrophotometer at excitation-emission wavelengths of 320-405 nm. The fluorescence intensity emitted by the culture medium was extracted from the metalloproteolytic activity values. The metalloproteolytic activity was calculated from the tangent to the curve of the fluorescence values using at least six different points over time for each type of cell and condition.
(§3) To analyse the effect of various stimuli on the metalloproteolytic activity of normal and polycystic human cholangiocytes cultures, a protocol similar to that described before in Example 2 was followed, but in this case the incubation of the cells was with quiescent medium (i.e. DMEM/F12, […]) in the presence of the corresponding stimulus (Table 3). Next, the same procedure as described for the analysis of basal metalloproteolytic activity was followed as described in Example 2.
(§4) Taking into account that: i) basal activity of polycystic human cholangiocytes in culture is greater than that of normal human cholangiocytes and ii) that IL-6 and IL-8 increased the metalloproteolytic activity of normal and polycystic human cholangiocytes, the role of these two cytokines on metalloproteolytic hyperactivity of polycystic human cholangiocytes using antibodies against the receptors of IL-6 (IL6R) and/or IL-8 (CXCR1) was investigated. […]

[2] = test system: polycystic human cholangiocytes; experiment: as above; format: cell-based; conditions: for metalloproteolytic activity in presence of stimulus: polycystic cholangiocytes vs basal, Table 3 final concentration: IL-6, IL-8 50 ng/ml, 17β-estradiol 1 nM/ml, VEGF, EGF, ENA-78, GRO-α 10 ng/ml, HGF 20 ng/ml, FIG. 9
Experimental: as §1, §2, §3, §4

[3] = target: recombinant MMP-10 (Homo sapiens, UniProt P09238); experiment: ES001 fluorogenic peptide assay with recombinant MMP-10 as positive control; format: biochemical; conditions: FIG. 2
Experimental: Metalloproteolytic or metalloprotease activity was measured in supernatants of cultures of normal human cholangiocytes and polycystic human cholangiocytes by an assay based on the cleavage of the ES001 fluorogenic synthetic peptide (R&D Systems Minneapolis, Minn., USA) that emits fluorescence proportional to metalloproteolytic activity. The substrate Mca-Pro-Leu-Gly-Leu-Dpa-Ala-Arg-NH2 [Mca: (7-Methoxycoumarin-4-yl)acetyl, Dpa: N-3-(2,4-Dinitrophenyl)-L-2,3-diaminopropionyl] […]
The basal metalloproteolytic activity of normal human cholangiocyte and polycystic human cholangiocytes cultures was determined by trypsinising the contents of 250 ml flasks and counting the number of cells in an inverted optical microscope using a Neubauer camera and a ½ dilution of the cell solution with trypan blue (Sigma). […] The fluorescence determination was kinetically measured in a Spectra MAX GeminiXS (Molecular Devices Sunnyvale, Calif., USA) spectrophotometer at excitation-emission wavelengths of 320-405 nm. The fluorescence intensity emitted by the culture medium was extracted from the metalloproteolytic activity values. The metalloproteolytic activity was calculated from the tangent to the curve of the fluorescence values using at least six different points over time for each type of cell and condition.

[4] = test system: normal human cholangiocytes; experiment: MMP mRNA expression by quantitative PCR in the presence of IL-6, IL-8 or 17β-estradiol; format: cell-based; conditions: for expression of MMP-2 (mRNA): FIG. 10; for expression of MMP-3 (mRNA): FIG. 11; for expression of MMP-7 (mRNA): FIG. 12; for expression of MMP-10 (mRNA): FIG. 13; for expression of MMP-11 (mRNA): FIG. 14; for expression of MMP-13 (mRNA): FIG. 15; for expression of MMP-15 (mRNA): FIG. 16; for expression of MMP-17 (mRNA): FIG. 17; for expression of MMP-27 (mRNA): FIG. 18
Experimental: (§5) To determine if the metalloproteolytic hyperactivity of polycystic human cholangiocytes is associated with changes in the pattern of expression of MMPs and their natural inhibitors, TIMPs, at the level of mRNA, this was analysed by quantitative PCR (i.e. qPCR) using the cDNA previously obtained as explained in Example 1, the gene expression of a total of 22 genes, including those containing the members of the metalloprotease family: MMP-1, MMP-2, MMP-3, MMP-7, MMP-8, MMP-9, MMP-10, MMP-11, MMP-13, MMP-14, MMP-15, MMP-16, MMP-17, MMP-18, MMP-24, MMP-25, MMP-26, MMP-27 and their natural inhibitors: TIMP-1, TIMP-2, TIMP-3, TIMP-4. Briefly, 4 μl of the cDNA were taken and 1.8 μl of a 10 μM solution of each primer (final concentration 0.9 μM) and 10 μl of FastSYBR® Green (Applied Biosystems) were added, adding sterile water (Braun) to reach a final volume of 20 μl. The amplification reactions were performed in a StepOne Plus (Applied Biosystems) thermo cycler following the standard protocol conditions for FastSYBR Green®.
(§6) The relative estimate of the mRNA levels of the genes of Table 2 were calculated from the PCR progression curve (fluorescence vs. cycle), where the cycle threshold or Ct was determined from when the fluorescence signal begins to increase exponentially. Thus to calculate the difference of relative expression of the normal and polycystic human cholangiocytes, the data obtained were analysed following the modified method of Livak and Schmittgen (Livak K J, et al. Methods 2001; 25:402), according to the following equation:
(§7) Relative values=1.8^(polycystic or normal cholangiocyte GAPDH−polycystic or normal cholangiocyte GEN)
(§8) Where the superscripts “GAPDH polycystic or normal cholangiocytes” and “Gene polycystic or normal cholangiocytes” correspond to the Ct for GAPDH and for each studied gene. The value of 1.8 (in place of 2) was used because it is assumed that the real efficiency of each amplification cycle is around 80% instead of 100%.
as §3
(§9) Taking into account the increase in metalloproteolytic activity induced by interleukins 6 and 8 and also the oestrogen 17β-estradiol in human cholangiocytes in culture, this was further investigated to determine if the increase in activity was correlated with an increase in gene expression at the level of mRNA of the various MMPs.

[5] = test system: polycystic human cholangiocytes; experiment: as above; format: cell-based; conditions: for expression of MMP-2 (mRNA): FIG. 10; for expression of MMP-3 (mRNA): FIG. 11; for expression of MMP-7 (mRNA): FIG. 12; for expression of MMP-10 (mRNA): FIG. 13; for expression of MMP-11 (mRNA): FIG. 14; for expression of MMP-13 (mRNA): FIG. 15; for expression of MMP-15 (mRNA): FIG. 16; for expression of MMP-17 (mRNA): FIG. 17; for expression of MMP-27 (mRNA): FIG. 18
Experimental: as §5, §6, §7, §8, §3, §9

[6] = test system: PCK rats; conditions: cited from earlier work
[7] = in vivo; cited from earlier work

recombinant MMP-10, sequence (P09238 99-476, species assumed): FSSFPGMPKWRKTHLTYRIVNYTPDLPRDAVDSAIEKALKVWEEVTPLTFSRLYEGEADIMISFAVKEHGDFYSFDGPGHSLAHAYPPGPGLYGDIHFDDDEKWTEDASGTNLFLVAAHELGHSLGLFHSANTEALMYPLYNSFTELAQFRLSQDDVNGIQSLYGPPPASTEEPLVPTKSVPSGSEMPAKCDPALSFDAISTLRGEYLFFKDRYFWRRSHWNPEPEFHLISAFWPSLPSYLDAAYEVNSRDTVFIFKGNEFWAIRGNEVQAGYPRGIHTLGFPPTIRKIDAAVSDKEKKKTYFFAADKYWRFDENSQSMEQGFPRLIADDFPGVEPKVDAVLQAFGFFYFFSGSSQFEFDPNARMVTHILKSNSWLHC

Molecule | metalloproteolytic activity in presence of stimulus [1] | metalloproteolytic activity in presence of stimulus [2] | expression of the other metalloproteinases 1, 8, 9, 14, 16, 18, 24 and 26 [4] | expression of MMP-2 (mRNA) [4] | expression of MMP-3 (mRNA) [4] | expression of MMP-7 (mRNA) [4] | expression of MMP-10 (mRNA) [4] | expression of MMP-11 (mRNA) [4] | expression of MMP-13 (mRNA) [4] | expression of MMP-15 (mRNA) [4] | expression of MMP-17 (mRNA) [4] | expression of MMP-27 (mRNA) [4] | expression of the other metalloproteinases 1, 8, 9, 14, 16, 18, 24 and 26 [5] | expression of MMP-2 (mRNA) [5] | expression of MMP-3 (mRNA) [5] | expression of MMP-7 (mRNA) [5] | expression of MMP-10 (mRNA) [5] | expression of MMP-11 (mRNA) [5] | expression of MMP-13 (mRNA) [5] | expression of MMP-15 (mRNA) [5] | other results
CNC(=O)[C@H](Cc1c[nH]c2ccccc12)NC(=O)[C@@H](CC(=O)NO)CC(C)C [GM6001] | – | – | – | – | – | – | – | – | – | – | – | – | – | – | – | – | – | – | – | – | metalloproteolytic activity ([1]; normal human cholangiocytes, presence of MMP inhibitor GM6001, p<0.001, FIG. 2): inhibited; metalloproteolytic activity ([2]; polycystic human cholangiocytes, presence of MMP inhibitor GM6001, p<0.001, FIG. 2): inhibited; metalloproteolytic activity of the assay with recombinant MMP-10 [3]: inhibited
IL-8: cytokine interleukin 8, present in the cystic fluid | increase | increase | did not show changes | none of these modules induced changes | unchanged | None of the 3 molecules caused changes | increased | increased | increased | did not change | did not change | did not change | did not show changes | not changed | unchanged | unchanged | none of the 3 molecules caused changes | increased | did not change | not altered | expression of MMP-17 (mRNA) [5]: increased; expression of MMP-27 (mRNA) [5]: unchanged
C[C@@H](O)[C@@H]1NC(=O)[C@H](CCCCN)NC(=O)[C@@H](Cc2c[nH]c3ccccc23)NC(=O)[C@H](Cc2ccccc2)NC(=O)[C@@H](NC(=O)[C@H](N)Cc2ccccc2)CSSC[C@@H](C(=O)N[C@H](CO)[C@@H](C)O)NC1=O [octreotide] | – | – | – | – | – | – | – | – | – | – | – | – | – | – | – | – | – | – | – | – | liver cystogenesis [6]: inhibited
IL-6: cytokine interleukin 6, present in the cystic fluid | increase | increase | did not show changes | none of these modules induced changes | unchanged | None of the 3 molecules caused changes | unchanged | did not change | did not cause changes | did not change | did not change | did not change | did not show changes | increased | increased | increased | none of the 3 molecules caused changes | increased | did not cause changes | increased | expression of MMP-17 (mRNA) [5]: increased; expression of MMP-27 (mRNA) [5]: increased
O=C(C[C@H](CSc1ccccc1)C(=O)O)c1ccc(-c2ccc(Cl)cc2)cc1 [BAY-12-9566] | – | – | – | – | – | – | – | – | – | – | – | – | – | – | – | – | – | – | – | – | half-life in plasma [7]: 90 to 100 h
C[C@]12CC[C@@H]3c4ccc(O)cc4CC[C@H]3[C@@H]1CC[C@@H]2O [17β-estradiol] | increase | increase | did not show changes | none of these modules induced changes | increased | None of the 3 molecules caused changes | increased | increased | increased | did not change | did not change | did not change | did not show changes | increased | unchanged | unchanged | none of the 3 molecules caused changes | increased | increased | not altered | expression of MMP-17 (mRNA) [5]: increased; expression of MMP-27 (mRNA) [5]: unchanged
